US12070445B2, “System and assay for monitoring production/release of membrane-lytic toxins in bacteria and compounds for modulating same” (priority 2021, dated 2024)

Tested on: S. aureus
Assay: S. aureus growth (OD600)
Format: cell-based
Settings: S. aureus WT and QS mutant with vesicles, 12 hr
Experimental: Microtiter plate vesicle lysis assays. Portions of media (2 or 10 mL) were inoculated with individual bacterial colonies and allowed to shake overnight. From these overnight cultures, subcultures were prepared by diluting the cultures 1:50 (v/v) in fresh BHI for S. aureus or 1:100 (v/v) in fresh LB for P. aeruginosa. An aliquot of each subculture (178 μL) was added to 20 μL of vesicle suspension and 2 μL of compound solution (dissolved in DMSO at 100× working concentration) in a clear-bottomed, black 96-well microtiter plate (Corning 3904). For controls, DMSO (vehicle) or Triton X-100 (1% final concentration) was substituted for compound. Plate covers were coated with an aqueous solution of 0.05% Triton X-100 and 20% ethanol (Brewster, 2003) to prevent the accumulation of condensation. Plates were incubated in a Biotek Synergy 2 microplate reader running Gen5 1.05 software at 37° C. with shaking at the high-speed setting. Fluorescence (excitation 500 nm, emission 540 nm) and OD600 (absorbance at 600 nm) measurements were recorded every 15 minutes for 12 hours. All experiments were performed in technical triplicate in a single microtiter plate. Biological triplicates were then obtained over three days. GraphPad Prism software (v. 9) was used to generate curves and calculate standard error.
High-throughput screening and follow-up analysis protocols. Test compounds and positive control 1 were delivered in 2.5 nL aliquots of DMSO with an Echo 550 liquid handler (LabCyte Inc.) into black 384-well microtiter plates (Corning). All test compounds were tested at 10 μM; positive control 1 was tested at 250 nM. DMSO was used as a negative control. Overnight cultures (2 mL) of WT S. aureus (RN6390b) were grown at 37° C. with shaking at 200 rpm. These cultures were diluted 1:500 (v/v) in fresh BHI medium, at which point vesicle solutions were added to a final concentration of 1 mM phospholipid (as determined by ^31P NMR analyses). This vesicle-cell mixture was then added to the 384-well microtiter plates with a Multidrop 384 liquid-dispensing robot (Thermo Scientific) for a total volume of 50 μL per well. Plates were incubated statically for ˜24 hr at 37° C., at which point fluorescence (excitation 483, emission 530) and OD600 (absorbance at 600 nm) measurements were made using a CLARIOstarR Plus microtiter plate reader (BMG Labtech) running MARS data analysis software. Scatter plots were generated using the Collaborative Drug Discovery Vault informatics platform. […] Fluorescence (excitation 510, emission 544) and OD600 measurements were acquired with a PerkinElmer EnVision microtiter plate reader running Envision Manager software. […]

Compound: CC(C)c1ccc(S(=O)(=O)c2nnn3c2nc(O)c2ccccc23)cc1 [Compound 6, savirin]
- impact on cell growth: some effects on growth at later time points
